In PMC3798429, “Exploring the Trypanosoma brucei Hsp83 Potential as a Target for Structure Guided Drug Design” (PLoS Neglected Tropical Diseases, 2013):
“And” between values parts separate entries of the source, which are not always exact repeats. Equal values may be shown once. Read-outs that look alike come from different tables or passages of the source. Marks after values point to notes of the source that are not given here.

How the values were obtained:
[1] = system: T1, Human Hsp90α; assay: Differential scanning fluorimetry (DSF) thermal shift, human Hsp90α NTD; type: binding; conditions: inhibitor 25 µM
T1 construct: The NTDs from TbHsp83 as well as human Hsp90s α and β
Method: (§1) DSF screening was carried out using a LightCycler 480 Real Time PCR System (Roche Applied Science, Quebec, Canada). The NTDs from TbHsp83 as well as human Hsp90s α and β were buffered in 100 mM hepes pH 7.5, 150 mM NaCl and assayed in a 384-well format. The final concentration of the protein sample was optimized between 0.05 and 0.2 mg/ml for each NTD (concentration selected based on pre-testing results to avoid saturation of the fluorescence detector). […] The recorded fluorescence reads were fitted to the Boltzmann sigmoid function using Bioactive software (Harbinger Biotechnology and Engineering Corp., Ontario, Canada). The inflection point of each fitted curve is defined as the melting temperature (T m). […] Thermal shifts above 2°C were considered significant.

[2] = target: T2, TbHsp83 NTD (Trypanosoma brucei brucei, UniProt P12861); type: binding; conditions: TbHsp83 NTD, inhibitor 25 µM, shifts above 2°C considered significant
Method: as §1

[3] = target: T2, TbHsp83 NTD; assay: biochemical; type: binding
[4] = system: T3, Human Hsp90β; assay: Differential scanning fluorimetry (DSF) thermal shift, human Hsp90β NTD; type: binding; conditions: inhibitor 25 µM
T3 construct: The NTDs from TbHsp83 as well as human Hsp90s α and β
Method: as §1

[5] = target: T3, Human Hsp90β; conditions: read-out: K d (previous ITC measurements); cited from earlier work
[6] = target: Yeast Hsp83; conditions: read-out: K d (previous ITC measurements); cited from earlier work
[7] = system: TbHsp83 NTD; type: binding; conditions: DSF comparison of TbHsp83, Hsp90α and Hsp90β
Method: as §1

[8] = system: T. brucei 427; assay: Parasite growth inhibition assay; type: cell-based; conditions: Trypanosoma brucei
Method: Assay conditions for T. brucei 427 cell based assay were followed as previously reported in the literature.
Several of the compounds characterized using DSF and ITC assays were evaluated for their ability to kill T. brucei in a continuous in vitro culture system.

[9] = system: Trypanosoma brucei; design: method as in PMID 23630365; conditions: cited from earlier work
[10] = target: Human TRAP-1; conditions: read-out: K d (previous ITC measurements); cited from earlier work
[11] = system: Plasmodium; design: method as in PMID 12584193; conditions: cited from earlier work
[12] = ITC, 20°C, TbHsp83 NTD, read-out: K d
[13] = blood stream stage T. brucei 427, in vitro culture, read-out: EC50

T2 sequence (P12861 1-213): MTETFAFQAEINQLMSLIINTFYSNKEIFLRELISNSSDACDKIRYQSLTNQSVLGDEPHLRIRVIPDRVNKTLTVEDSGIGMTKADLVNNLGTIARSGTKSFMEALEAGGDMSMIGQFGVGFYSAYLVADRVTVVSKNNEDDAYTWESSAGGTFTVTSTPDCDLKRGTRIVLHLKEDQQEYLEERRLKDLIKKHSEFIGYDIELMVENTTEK

Compound: Oc1cc(O)c(-c2noc3ccc(NCCN4CCOCC4)cc23)cc1Cl [CAY10607]
- ΔT m [1]: 15.3 °C
- ΔT m [2]: 13.3 °C
- Kd [3, 12]: 10 nM
- ΔT m [4]: 12.1 °C

Compound: Nc1ncnc2c1ncn2[C@@H]1O[C@H](COP(=O)(O)OP(=O)(O)NP(=O)(O)O)[C@@H](O)[C@H]1O [AMPPNP]
- Kd [5]: 141000 nM
- Kd [6]: 111000 nM
- ΔT m [2]: 0.3 °C

Compound: CO[C@H]1[C@@H](OC)C[C@H](C)[C@@H](OC)C2=CC(=O)C=C(NC(=O)/C(C)=C/C=C\[C@H](C)[C@@H](OC(N)=O)/C(C)=C/[C@@H]1C)C2=O [Macbecin I]
- ΔT m [1]: 10.2 °C
- Kd [6]: 240 nM
- binding preference TbHsp83 vs human Hsp90 [7]: markedly stronger binding to TbHsp83
- ΔT m [2]: 16.9 °C
- fold higher affinity of T. brucei Hsp83 compared to K d reported for yeast counterpart ([3]; ITC K d vs yeast value of ref 45): 2.5 fold
- Kd ([3]; K d, ITC, 20°C, TbHsp83 NTD): 93 nM
- ΔT m [4]: 8.6 °C

Compound: CCNC(=O)c1noc(-c2cc(C(C)C)c(O)cc2O)c1-c1ccc(CN2CCOCC2)cc1 [NVP-AUY922]
- ΔT m [1]: 22.3 °C
- binding preference TbHsp83 vs human Hsp90 [7]: stronger affinity for human Hsp90
- ΔT m [2]: 18.5 °C
- Kd [3, 12]: 3 nM
- ΔT m [4]: 19.6 °C

Compound: CSCCNc1cc(-n2nc(C(F)(F)F)c3c2CC(C)(C)CC3=O)ccc1C(N)=O [Compound 5, 4-(6,6-dimethyl-4-oxo-3-(trifluoromethyl)-4,5,6,7-tetrahydro-1H-indazol-1-yl)-2-((2-(methylthio)ethyl)amino)benzamide]
- ΔT m [1]: 2.3 °C
- binding preference TbHsp83 vs human Hsp90 [7]: preferentially binds TbHsp83
- binding preference TbHsp83 vs human Hsp90 ([7]; listed as compound 5): markedly stronger binding to TbHsp83
- ΔT m [2]: 12.03 °C
- Kd [3, 12]: 794 nM
- ΔT m [4]: 0.4 °C
- EC50 [8, 13]: 130 nM

Compound: CCc1cc(-c2n[nH]c(C)c2-c2ccc3c(c2)OCCO3)c(O)cc1O [CCT018159]
- ΔT m [1]: 12.1 °C
- ΔT m [2]: 8.01 °C
- Kd [3, 12]: 4980 nM
- ΔT m [4]: 7.5 °C

Compound: CO[C@H]1/C=C\C=C(/C)C(=O)NC2=CC(=O)C(NCCN(C)C)=C(C[C@@H](C)C[C@H](OC)[C@H](O)[C@@H](C)/C=C(\C)[C@@H]1OC(N)=O)C2=O [Compound 17-DAMG-GA, 17-DAMG-GA]
- ΔT m [1]: 5.5 °C
- Kd [5]: 350 nM
- ΔT m [2]: 11.7 °C
- ΔT m [4]: 3.9 °C
- EC50 [9]: 3 nM

Compound: CC(=O)c1ccc(N2C3CCC2CC(NC(=O)c2ccc(C(N)=O)c(NC4CCC(O)CC4)c2)C3)nc1 (stereo not drawn) [Compound 6, N4-[8-(5-acetylpyridin-2-yl)-8-azabicyclo[3.2.1]oct-3-endo-yl]-2-[(trans-4-hydroxycyclohexyl)amino]benzene-1,4-dicarboxamide]
- ΔT m [1]: 8.5 °C
- ΔT m [2]: 10.4 °C
- ΔT m [4]: 4.9 °C
- EC50 [8, 13]: 220 nM

Compound: CO[C@H]1/C=C\C=C(/C)C(=O)NC2=CC(=O)C(NCCN3CCCC3)=C(C[C@@H](C)C[C@H](OC)[C@H](O)[C@@H](C)/C=C(\C)[C@@H]1OC(N)=O)C2=O [Compound 17-AEP-GA, 17-AEP-GA]
- ΔT m [1]: 5.1 °C
- ΔT m [2]: 13.8 °C
- Kd [3, 12]: 714 nM
- ΔT m [4]: 4.2 °C

Compound: C=CCNC1=C2C[C@@H](C)C[C@H](OC)[C@H](O)[C@@H](C)/C=C(\C)[C@H](OC(N)=O)[C@@H](OC)/C=C\C=C(/C)C(=O)NC(=CC1=O)C2=O [Compound 17-AAG-GA, 17-AAG-GA]
- ΔT m [1]: 3.1 °C
- ΔT m [2]: 10.7 °C
- ΔT m [4]: 1.6 °C
- EC50 [9]: 38 nM

Compound: CCC(C)n1c(Cc2cc(OC)ccc2OC)nc2c(N)nc(C)nc21 (stereo not shown) [Compound 2, 9-(sec-butyl)-8-(2,5-dimethoxybenzyl)-2-methyl-9H-purin-6-amine]
- ΔT m [1]: 1.2 °C
- ΔT m [2]: 0.8 °C
- ΔT m ([2]; listed as compound 2): non-significant
- K d ([3]; ITC, 20°C, TbHsp83 NTD): lowest affinity measured by ITC
- Kd [3, 12]: 9300 nM and 9260 nM
- ΔT m [4]: −0.5 °C
- EC50 [8, 13]: 13000 nM

Compound: C[C@@H]1C[C@H]2O[C@@H]2/C=C\C=C\C(=O)Cc2c(Cl)c(O)cc(O)c2C(=O)O1 [Radicicol]
- Kd [10]: 25 nM
- ΔT m [1]: 18.8 °C
- Kd [6]: 16 nM
- binding preference TbHsp83 vs human Hsp90 [7]: stronger affinity for human Hsp90
- ΔT m [2]: 6.5 °C
- ΔT m [4]: 15.6 °C
- EC50 [9]: 70 nM

Compound: Nc1ncnc2c1ncn2[C@@H]1O[C@H](COP(=O)(O)OP(=O)(O)O)[C@@H](O)[C@H]1O [ADP]
- Kd [10]: 35000 nM
- ΔT m [1]: 0.3^a °C
- Kd [5]: 15000 nM
- ΔT m [2]: 0.1 °C
- ΔT m [4]: 0.5^b °C

Compound: AMPPSP
- Kd [10]: 109000 nM

Compound: COc1c(C)cnc(Cn2cnc3c(Cl)nc(N)nc32)c1C [Compound 1, 6-chloro-9-(4-methoxy-3,-dimethylpyridin-2-ylmethyl)-9H-purin-2-ylamine]
- ΔT m [2]: 10.5 °C
- Kd ([3]; K d, ITC, 20°C, TbHsp83 NTD): 9 nM
- ΔT m [4]: 8.7 °C
- EC50 [8, 13]: 310 nM

Compound: COC1=C2C[C@@H](C)C[C@H](OC)[C@H](O)[C@@H](C)/C=C(\C)[C@H](OC(N)=O)[C@@H](OC)/C=C\C=C(/C)C(=O)NC(=CC1=O)C2=O [Geldanamycin]
- Kd [6]: 2900 nM
- ΔT m [2]: 14.8 °C
- Kd ([3]; K d, ITC, 20°C, TbHsp83 NTD): 1000 nM
- EC50 [9]: 13 nM
- concentration inhibiting parasite growth [11]: sub-micromolar

Compound: CC1(C)CC(=O)c2c(C(F)(F)F)nn(-c3ccc(C(N)=O)c(N[C@H]4CC[C@H](O)CC4)c3)c2C1 [Compound 4, 4-[6,6-dimethyl-4-oxo-3-(trifluoromethyl)-4,5,6,7-tetrahydro-1H-indazol-1-yl]-2-[(trans-4-hydroxycyclohexyl)amino]benzamide]
- ΔT m [2]: 15.5 °C
- Kd [3, 12]: 3 nM
- Kd ([3]; ITC, read-out: K d): 2.8 nM
- EC50 [8, 13]: 100 nM

Compound: CCNC(=O)c1cc2c(-c3cc(OCCN(CC)CC)c(Cl)cc3Cl)nc(N)nc2s1 [Compound 3, 2-amino-4-[2,4-dichloro-5-(2-diethylaminoethoxy)phenyl]thiopheno[2,3-d]pyrimidine-6-carboxylic acid ethylamide]
- ΔT m [1]: 14.7 °C
- ΔT m [2]: 12.7 °C
- Kd [3, 12]: 26 nM
- ΔT m [4]: 12.9 °C
- EC50 [8]: 210 nM
